{"source": "patent US8653023B1", "about": "“Dual beneficial effect of dopamine enhancing and neuroprotective actions of PKC delta inhibitors for treatment of Parkinson's disease” (Iowa State University Research Foundation, Inc., priority 2006, dated 2014)", "key": {"[1]": {"target": "T1, PKCδ (Mus musculus, UniProt P28867)", "T1 construct": "PKCδ was immunoprecipitated from SN lysates of both rottlerin-mice and vehicle-mice using PKCδ specific polyclonal antibody; from tissue; host or cells: substantia nigra of C57 black mice", "test": "PKCδ immunoprecipitation kinase assay on substantia nigra of rottlerin-treated mice", "assay_type": "in vivo", "settings": "5 days", "method": "PKCδ enzymatic activity was assayed using an immunoprecipitation kinase assay as described by Reyland et al. (Reyland, Anderson et al. 1999). Briefly, after treatment with rottlerin, substantia nigra brain tissue were washed once with PBS and resuspended in 1 ml of PKC lysis buffer (25 mM HEPES, pH 7.5, 20 mM β-glycerophosphate, 0.1 mM sodium orthovanadate, 0.1% Triton X-100, 0.3 M NaCl, 1.5 mM MgCl2, 0.2 mM EDTA, 0.5 mM DTT, 10 mM NaF, and 4 μg/ml each aprotonin and leupeptin). The lysates were allowed to sit on ice for 30 min and centrifuged at 13,000×g for 5 min, and the supernatants were collected as cytosolic fraction. Protein concentration was determined using a Bradford assay. Cytosolic protein (0.25-0.5 mg) was immunoprecipitated overnight at 4° C. using 2 μg of anti-PKCδ antibody. The immunoprecipitates were then incubated with Protein-A Sepharose (Sigma) for 1 hr at 4° C. The protein A bound antigen-antibody complexes were then washed three times with PKC lysis buffer, three times with 2× kinase buffer (40 mM Tris, pH 7.4, 20 mM MgCl2, 20 μM ATP, and 2.5 mM CaCl2), and resuspended in 20 μl of 2× kinase buffer. Reaction was started by adding 20 μl of reaction buffer containing 0.4 mg Histone H1, 50 μg/ml phosphatidylserine, 4.1 μM dioleoylglycerol, and 5 μCi of [γ-^32P] ATP (3000 Ci/mM) to the immunoprecipitated samples and incubated for 10 min at 30° C. SDS gel-loading buffer (2×) was added to terminate the reaction, the samples were boiled for 5 min, and the products were separated on a 12.5% SDS-PAGE gel. The H1 phosphorylated bands were detected using a Personal Molecular Imager (FX model; Bio-Rad), and quantification was done using Quantity One 4.2.0 software."}, "[2]": {"tested_on": "MPTP-treated C57 black mice", "test": "MPTP-induced striatal dopamine depletion (HPLC-EC)", "assay_type": "in vivo", "procedure": "Six to 8-week-old […] mice weighing 30 g were housed in standard conditions: constant temperature (22±1° C.), humidity (relative, 30%) and a 12-h light/dark cycle, and were allowed free access to food and water. The animals and protocol procedures were approved and supervised by the Committee on Animal Care (COAC) at the Iowa State University. Rottlerin was dissolved in 1% dimethyl sulfoxide (DMSO) and was administered intraperitoneally at various doses. An equal volume of DMSO was given to controls. Rottlerin and DMSO administrations were started 24 h before the injections of the MPTP and continued for 5 days in the MPTP model. In the chronic regimens of MPTP administration, MPTP in phosphate-buffered saline (PBS) was injected intraperitoneally at doses of 30 mg/kg, once a day. Mice were sacrificed 2 days after the MPTP injections, and the striata were dissected for catecholamine analysis. Additionally, rottlerin alone (0.3-20 mg/kg) was administered via intraperitoneally or orally and then brain tissues were subjected to neurochemical analyses (FIG. 8). The mesencephalons were fixed in 4% paraformaldehyde for 5 days for tyrosine hydroxylase (TH) immunostaining.\nDA and DOPAC levels in brain striatal tissues were determined by high-performance liquid chromatography with electrochemical detection (HPLC-EC); samples were prepared as described previously (Kitazawa, Anantharam et al. 2001). Briefly, neurotransmitters were extracted from samples using 0.1M perchloric acid containing 0.05% Na2EDTA and 0.1% Na2S2O5. The extracts were filtered in 0.22 micron spin tubes and 20 μl of the samples was loaded for analysis. DA and DOPAC were separated isocratically by a reversed-phase column with a flow rate of 0.7 ml/min. An HPLC system (ESA Inc., Bedford, Mass.) with an ESA automatic sampler (model 542) was used for these experiments. The electrochemical detection (EC) system consisted of an ESA coulochem model 5100A with a microanalysis cell model 5014A and a guard cell model 5020 (ESA Inc., Bedford, Mass.). The DA and DOPAC levels were measured as pg/mg protein and expressed as percent of control."}, "[3]": {"tested_on": "MPTP-treated C57 black mice", "test": "Locomotor activity of MPTP-treated mice (VersaMax)", "assay_type": "in vivo", "settings": "rottlerin 20 mg/kg + MPTP 30 mg/kg 5 days", "from_the_text": "Behavioral data were collected using VersaMax Animal Activity Monitors (AccuScan Model RXYZCM-16, Columbus, Ohio). Each chamber was 40×40×30.5 cm^3, made of clear Plexiglas and covered with a Plexiglas lid with air-holes. Infrared monitoring sensors were located every 2.54 cm along the perimeter (16 infrared beams along each side) and 2.5 cm above the floor. Two additional sets of 16 sensors were located 8.0 cm above the floor on opposite sides. Data were collected and analyzed by a VersaMax Analyzer (AccuScan Model CDA-8, Columbus, Ohio) which in turn sent information to an IBM computer where it was stored for future analyses. Locomotor activity was presented as horizontal movement and vertical movement. All data are expressed as percent of the vehicle-treated control group (mean 6 SEM) and were obtained 1 day after MPTP or vehicle treatment in a 20-min test session."}, "[4]": {"tested_on": "tyrosine hydroxylase (TH)", "test": "TH activity (DOPA levels after NSD-1015) in N27 cells", "assay_type": "cell-based, rat", "settings": "2 mM NSD-1015, rottlerin 3 hr vs DMSO, PKCδ-DN vs LacZ", "procedure": "Plasmid pPKCδ^K376R-V5 encodes the loss of function PKCδ-V5 epitope tagged mutant protein; K376R refers to the mutation of the lysine residue at position 376 to arginine in the catalytic site resulting in inactivation of the kinase. Plasmid pLacZ-V5 encodes the β-galactosidase protein alone with a V5-epitope and is used as a vector control. N27 cells stably expressing PKCδ^K376R-V5 (herein referred to as PKCδ-DN cells) and LacZ alone-expressing cells (LacZ cells) were cultured as described previously (Kitazawa et al., 2005). PKCδ-DN or LacZ expressing N27 cells were identified by immunostaining of the C-terminal V5 epitope on expressed proteins and were differentiated with cAMP analogs (e.g. dibutyral cAMP) prior to experiments. PKCδ-DN and LacZ were also transiently expressed in mouse primary mesencephalic neurons using an AMAXA® Nucleofector™ kit (AMAXA GmbH, Germany). As described above, primary mesencephalic neurons were prepared from the midbrain of 16-18-day-old mice embryos. After digestion with trypsin-EDTA-HBSS, the primary neurons were homogenously resuspended with transfection buffer provided with the kit to a final concentration of 4-5×10^6 neurons/100 μl and mixed with 1 μg plasmid DNA encoding either PKCδ-DN-V5 or LacZ-V5. […] Transfection efficiency was >75% as determined by immunostaining of V5-expression. […]"}, "[5]": {"tested_on": "N27 cells", "test": "Cellular DA and DOPAC levels in N27 cells (HPLC-EC)", "assay_type": "cell-based, rat", "settings": "N27 cells; rottlerin vs vehicle, PKCδ-DN vs LacZ", "procedure": "PC12 cells, differentiated N27 dopaminergic cells and primary mesencephalic neurons were exposed to 1-10 μM rottlerin for the duration of the experiment. DMSO (0.01%) was used as vehicle control. PKCδ-DN- and Lac Z-expressing N27 cells were only treated with 0.01% DMSO. […] Untreated or vehicle treated cells were used as control samples.\nDA and DOPAC levels in PC12, N27 cells and in brain striatal tissues were determined by high-performance liquid chromatography with electrochemical detection (HPLC-EC); samples were prepared as described previously (Kitazawa et al., 2001). The DA and DOPAC levels were measured as pg/mg protein and expressed as percent of control."}, "[6]": {"tested_on": "PKCδ", "settings": "pretreatment, dose-dependent; cited from earlier work"}, "[7]": {"tested_on": "bone marrow-derived macrophages", "settings": "cited from earlier work"}}, "data": [{"smiles": "CC(=O)c1c(O)c(C)c(O)c(Cc2c(O)c3c(c(C(=O)/C=C/c4ccccc4)c2O)OC(C)(C)C=C3)c1O", "note": "[rottlerin]", "values": [{"measurement": "reduction in the kinase activity in SN", "setting": "[1]; i.p. injection with 3 mg rottlerin", "result": "more than 30%"}, {"measurement": "reduction in the kinase activity in SN", "setting": "[1]; i.p. injection with 7 mg rottlerin", "result": "more than 30%"}, {"measurement": "decrease in protein kinase activity in SN (phosphorylated histone H1 bands)", "setting": "[1]; orally treated with 10 mg rottlerin", "result": 40, "unit": "%"}, {"measurement": "decrease in protein kinase activity in SN (phosphorylated histone H1 bands)", "setting": "[1]; orally treated with 20 mg rottlerin", "result": 50, "unit": "%"}, {"measurement": "protection against dopamine loss induced by MPTP toxicity in striatum", "setting": "[2]; 20 mg/kg rottlerin", "result": 50, "unit": "%"}, {"measurement": "MPTP-induced decrease in dopamine and metabolite levels", "setting": "[2]; oral 20 mg/kg and i.p. 3, 7 and 10 mg/kg rottlerin, dose-dependent", "result": "significantly antagonized"}, {"measurement": "dopamine level in striatum", "setting": "[2]; rottlerin 20 mg/kg + MPTP 30 mg/kg for 5 days", "result": "112.8±25.32", "unit": "pg/mg tissue weight"}, {"measurement": "horizontal movement, percent of vehicle-treated control", "setting": "[3]", "result": 76.93, "unit": "%"}, {"measurement": "vertical movement, percent of vehicle-treated control", "setting": "[3]", "result": 79, "unit": "%"}, {"measurement": "TH activity", "setting": "[4]", "result": "3025±266.7", "unit": "pg DOPA/10^6 cells/hr"}, {"measurement": "DA level", "setting": "[5]", "result": "2748±208", "unit": "pg/μg protein"}, {"measurement": "DOPAC levels", "setting": "[5]", "result": "2564±848.19", "unit": "pg/μg protein"}, {"measurement": "increase in DA level", "setting": "[5]", "result": 4, "unit": "fold"}, {"measurement": "increase in DOPAC levels", "setting": "[5]", "result": 4, "unit": "fold"}, {"measurement": "MMT induced accumulation of PKCδ cleavage product and increased kinase activity", "setting": "[6]", "result": "prevented"}, {"measurement": "silica-induced apoptosis as measured by DNA fragmentation", "setting": "[7]", "result": "reduced"}]}]}
